The term EC50 denotes the concentration needed to bring the measured effect to its halfway point. As a reminder, the IC50 is the concentration that gives 50% inhibition.

The record followed here is patent publication US11566007B2, “Ras inhibitors” (Revolution Medicines, Inc., priority 2019, dated 2023).

For assay [1], the system named is NCI-H358 cells (K-Ras G12C). Put plainly: Potency assay: pERK in NCI-H358 cells. Format: cell-based, human. The note with it: Homo sapiens. In outline:
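pERK decrease read by AlphaLISA SureFire p-ERK1/2 or In-Cell Western after 4 h compound exposure at 37 °C, 5% CO2.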

A further assay deals with KRAS WT (Homo sapiens (Human), UniProt P01116+P62937). Put plainly: Ras-Raf (BRAF RBD) disruption / FRET / MOA assay, KRAS WT. The assay is classed as biochemical. Particulars: read-out: IC50* KRAS WT FRET data. The method, boiled down: (§1)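 TR-FRET read-out: a drop in ratio relative to DMSO wells marks disruption of the Ras:RAF complex, reported as IC50. Compounds (3-fold series, 10 points, top 30 μM final) incubated 3 h at 25° C before Eu-anti-His 10 nM and APC-anti-GST 50 nM, 1.5 h more.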

The target of another assay is KRAS G12D (Homo sapiens (Human), UniProt P01116+P62937, G12D). Kind of assay: Ras-Raf (BRAF RBD) disruption / FRET / MOA assay, KRAS G12D. Format: biochemical. The note with it: Ras-Raf disruption/FRET/MOA assay; class symbols; read-out: KRAS G12D FRET data IC50. The method, boiled down: as §1
The next assay addresses NRAS G12C (Homo sapiens (Human), UniProt P01111+P62937, G12C). Put plainly: Ras-Raf (BRAF RBD) disruption / FRET / MOA assay, NRAS G12C. The assay is classed as biochemical. Particulars: read-out: IC50* NRAS G12C FRET data. In outline: as §1
A further assay addresses K-Ras G12C (Homo sapiens (Human), UniProt P01116+P62937, G12C). Put plainly: Ras-Raf (BRAF RBD) disruption / FRET / MOA assay, KRAS G12C. The assay is classed as biochemical. The method, boiled down: as §1
For the next assay, the target named is K-Ras G13C (Homo sapiens (Human), UniProt P01116+P62937, G13C). Kind of assay: Ras-Raf (BRAF RBD) disruption / FRET / MOA assay, KRAS G13C. Format: biochemical. In outline: as §1
Another assay has as its system NCI-H358 (K-Ras G12C). Put plainly: CellTiter-Glo cell viability assay, NCI-H358. Format: cell-based, human. The note with it: Homo sapiens, NCI-H358, 120 h, NCI-H358, 5-day treatment. In outline: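 Cells seeded, compound added directly, 5-day exposure. Plates to RT ~30 min, CellTiter-Glo luminescence read. Normalized to DMSO avg (x100); 4-parameter logistic fit.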
On the technique in general: Cellular ATP, detected with luciferase, serves as a proxy for viable cell number.

A further assay deals with KRAS G12S (Homo sapiens (Human), UniProt P01116+P62937, G12S). Kind of assay: Ras-Raf (BRAF RBD) disruption / FRET / MOA assay, KRAS G12S. Format: biochemical. Particulars: Ras-Raf disruption/FRET/MOA assay; class symbols; read-out: KRAS G12S FRET data IC50. The method, boiled down:
as §1

For the next assay, the target named is KRAS G12V (Homo sapiens (Human), UniProt P01116+P62937, G12V). Put plainly: Ras-Raf (BRAF RBD) disruption / FRET / MOA assay, KRAS G12V. Format: biochemical. Particulars: read-out: IC50* KRAS G12V FRET data. In outline:
as §1

A further assay concerns the target KRAS G13D (Homo sapiens (Human), UniProt P01116+P62937, G13D). Put plainly: Ras-Raf (BRAF RBD) disruption / FRET / MOA assay, KRAS G13D. Format: biochemical. The note with it: read-out: IC50* KRAS G13D FRET data. In outline:
as §1

[2] abbreviates: NCI-H358, H358 KRAS G12C, read-out: pERK EC50.
Where [3] appears, read: KRAS G12C, Ras-Raf disruption/FRET/MOA assay, read-out: IC50* KRAS G12C FRET data.
[4] abbreviates: KRAS G13C, Ras-Raf disruption/FRET/MOA assay, read-out: IC50* KRAS G13C FRET data.
Setting [5] is: class symbols, read-out: Additional H358 Cell Viability assay data (K-Ras G12C, IC50).

The structures appear in SMILES notation. Values joined by “and” are separate entries in the source; they are usually repeats but may differ in a detail not shown here. Equal entries are not always repeated. Where two headings read alike, the source gives them in different places.

KRAS G12D, sequence (P01116-2 other isoform, or with tags, fused parts or gaps G12D): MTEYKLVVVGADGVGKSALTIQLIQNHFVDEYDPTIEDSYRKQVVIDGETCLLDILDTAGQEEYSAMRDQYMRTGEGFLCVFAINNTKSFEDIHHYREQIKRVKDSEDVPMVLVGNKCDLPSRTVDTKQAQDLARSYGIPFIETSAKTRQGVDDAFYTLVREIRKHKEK
KRAS G12D, sequence (P62937 whole entry): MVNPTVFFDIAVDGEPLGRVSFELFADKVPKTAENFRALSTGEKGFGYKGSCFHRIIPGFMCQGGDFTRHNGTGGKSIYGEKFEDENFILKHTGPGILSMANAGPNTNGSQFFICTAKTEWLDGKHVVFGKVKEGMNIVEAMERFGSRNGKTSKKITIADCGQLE
K-Ras G12C, sequence (P01116-2 other isoform, or with tags, fused parts or gaps G12C): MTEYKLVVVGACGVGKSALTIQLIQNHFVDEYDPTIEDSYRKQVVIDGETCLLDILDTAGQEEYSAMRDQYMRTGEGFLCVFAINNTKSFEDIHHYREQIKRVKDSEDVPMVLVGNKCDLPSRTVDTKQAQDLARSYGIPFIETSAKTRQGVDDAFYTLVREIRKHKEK
K-Ras G12C, sequence (P62937 whole entry): as the sequence (P62937 whole entry) above
NRAS G12C, sequence (P01111 whole entry G12C): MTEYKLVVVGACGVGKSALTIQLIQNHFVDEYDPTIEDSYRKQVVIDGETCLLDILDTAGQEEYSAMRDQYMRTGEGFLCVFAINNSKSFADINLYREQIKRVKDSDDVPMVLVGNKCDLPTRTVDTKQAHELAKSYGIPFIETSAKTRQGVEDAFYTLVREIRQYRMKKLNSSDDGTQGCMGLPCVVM
NRAS G12C, sequence (P62937 whole entry): as the sequence (P62937 whole entry) above
KRAS WT, sequence (P01116-2 other isoform, or with tags, fused parts or gaps): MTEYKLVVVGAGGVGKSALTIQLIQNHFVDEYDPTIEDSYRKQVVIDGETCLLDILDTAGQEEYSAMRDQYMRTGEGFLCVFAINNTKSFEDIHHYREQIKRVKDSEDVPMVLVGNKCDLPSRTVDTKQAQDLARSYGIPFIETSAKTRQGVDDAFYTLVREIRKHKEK
KRAS WT, sequence (P62937 whole entry): as the sequence (P62937 whole entry) above
KRAS G12S, sequence (P01116-2 other isoform, or with tags, fused parts or gaps G12S): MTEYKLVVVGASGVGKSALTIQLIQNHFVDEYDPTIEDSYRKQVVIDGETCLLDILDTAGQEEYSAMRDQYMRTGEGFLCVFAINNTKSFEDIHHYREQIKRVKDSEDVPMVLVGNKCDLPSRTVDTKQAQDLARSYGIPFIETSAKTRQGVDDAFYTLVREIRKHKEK
KRAS G12S, sequence (P62937 whole entry): as the sequence (P62937 whole entry) above
KRAS G12V, sequence (P01116-2 other isoform, or with tags, fused parts or gaps G12V): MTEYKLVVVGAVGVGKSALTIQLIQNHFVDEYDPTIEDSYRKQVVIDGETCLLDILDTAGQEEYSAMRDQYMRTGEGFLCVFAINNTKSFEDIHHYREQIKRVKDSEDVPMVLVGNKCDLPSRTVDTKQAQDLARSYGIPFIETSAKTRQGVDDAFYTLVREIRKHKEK
KRAS G12V, sequence (P62937 whole entry): as the sequence (P62937 whole entry) above
KRAS G13D, sequence (P01116-2 other isoform, or with tags, fused parts or gaps G13D): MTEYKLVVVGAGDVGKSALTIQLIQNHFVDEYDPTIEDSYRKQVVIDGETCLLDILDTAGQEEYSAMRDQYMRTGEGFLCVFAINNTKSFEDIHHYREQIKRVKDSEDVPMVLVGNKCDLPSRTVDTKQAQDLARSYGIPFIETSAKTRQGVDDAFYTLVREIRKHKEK
KRAS G13D, sequence (P62937 whole entry): as the sequence (P62937 whole entry) above
K-Ras G13C, sequence (P01116-2 other isoform, or with tags, fused parts or gaps G13C): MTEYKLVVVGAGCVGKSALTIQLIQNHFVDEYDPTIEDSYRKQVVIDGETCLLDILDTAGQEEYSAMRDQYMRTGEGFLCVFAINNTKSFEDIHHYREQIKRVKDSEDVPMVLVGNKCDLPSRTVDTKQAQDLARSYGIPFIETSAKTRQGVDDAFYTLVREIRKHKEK
K-Ras G13C, sequence (P62937 whole entry): as the sequence (P62937 whole entry) above

Turning to `CCn1c(-c2cccnc2COC)c2c3cc(ccc31)-c1cc(O)cc(c1)C[C@H](NC(=O)[C@H](C(C)C)N(C)C(=O)[C@H]1CCN(C(=O)C#CCN3CCN(C)CC3)C1)C(=O)N1CCC[C@H](N1)C(=O)OCC(C)(C)C2` [Example A189], in assay [1] (setting [2]), the concentration giving a half-maximal response (EC50) was under 5000 nM. Moreover, the IC50 was 100 to 1000 nM at KRAS WT; 100 to 1000 nM on KRAS G12D; 10 to 100 nM at NRAS G12C; 10 to 100 nM at K-Ras G12C (setting [3]); 100 to 1000 nM at K-Ras G13C (setting [4]); over 1000 nM in the assay with NCI-H358 (K-Ras G12C) (setting [5]). Further, the half-inhibitory concentration (IC50) at KRAS G12S, on KRAS G12V and on KRAS G13D was 100 to 1000 nM throughout.

Regarding `CCn1c(-c2cccnc2)c2c3cc(ccc31)-c1csc(n1)C[C@H](NC(=O)[C@H](C(C)C)N(C)C(=O)[C@H]1CCN(C(=O)C#CCN3CCOCC3)C1)C(=O)N1CCC[C@H](N1)C(=O)OCC(C)(C)C2` [Example A190], in assay [1] (setting [2]), the EC50 is under 5000 nM. Also, the IC50 was over 10000 nM at KRAS WT; over 10000 nM at KRAS G12D; 100 to 1000 nM at NRAS G12C; 100 to 1000 nM at K-Ras G12C (setting [3]); over 10000 nM at K-Ras G13C (setting [4]); 100 to 1000 nM in the assay with NCI-H358 (K-Ras G12C) (setting [5]). For the same molecule, the IC50 at KRAS G12S, at KRAS G12V and at KRAS G13D was over 10000 nM throughout.

Consider `CCn1c(-c2cccnc2)c2c3cc(ccc31)-c1cccc(c1)C[C@H](NC(=O)[C@H](C(C)C)N(C)C(=O)[C@H]1CCN(C(=O)C#CCN3CCOCC3)C1)C(=O)N1CCC[C@H](N1)C(=O)OCC(C)(C)C2` [Example A195], for which the EC50 in assay [1] (setting [2]) was under 5000 nM. For the same molecule, the IC50 on KRAS WT is over 10000 nM; at KRAS G12D, over 10000 nM; at NRAS G12C it was 100 to 1000 nM; at K-Ras G12C (setting [3]) it was 100 to 1000 nM; on K-Ras G13C (setting [4]), over 10000 nM; with NCI-H358 (K-Ras G12C) (setting [5]) it was 100 to 1000 nM. The IC50 on KRAS G12S, at KRAS G12V and on KRAS G13D was over 10000 nM throughout.

On to `CCn1c(-c2cccnc2COC)c2c3cc(ccc31)-c1cc(O)cc(c1)C[C@H](NC(=O)[C@@H](C(C)C)N(C)C(=O)[C@H]1CCN(C(=O)C#CCN3CCOCC3)C1)C(=O)N1CCC[C@H](N1)C(=O)OCC(C)(C)C2` [Example A200], for which the EC50 in assay [1] (setting [2]) is under 5000 nM. Besides, the half-maximal inhibitory concentration (IC50) on KRAS WT is over 10000 nM; on KRAS G12D, over 10000 nM; at NRAS G12C, 10 to 100 nM; on K-Ras G12C (setting [3]) it was 10 to 100 nM; on K-Ras G13C (setting [4]), 1000 to 10000 nM; in the assay with NCI-H358 (K-Ras G12C) (setting [5]), 100 to 1000 nM. Moreover, the IC50 at KRAS G12S, on KRAS G12V and on KRAS G13D was over 10000 nM throughout.

On to `CCn1c(-c2cncnc2)c2c3cc(ccc31)-c1cccc(c1)[C@@H](OC)[C@H](NC(=O)[C@H](C(C)C)N(C)C(=O)[C@H]1CCN(C(=O)C#CCN3CCOCC3)C1)C(=O)N1CCC[C@H](N1)C(=O)OCC(C)(C)C2` [Example A208], for which the EC50 in assay [1] (setting [2]) was under 5000 nM; in assay [1] (NCI-H358 cells, 4 hours, read-out: H358 pERK (K-Ras G12C) EC50) it was 13 nM. Moreover, the IC50 on KRAS WT was over 10000 nM; on KRAS G12D, over 10000 nM; on NRAS G12C, 1000 to 10000 nM; on K-Ras G12C (setting [3]) it was 100 to 1000 nM; on K-Ras G12C (with Cyclophilin A, BRAF RBD, read-out: FRET (K-Ras G12C) IC50), 23 nM; at K-Ras G13C (setting [4]), over 10000 nM. The IC50 is 7480 nM on K-Ras G13C (with Cyclophilin A, BRAF RBD, read-out: FRET (K-Ras G13C) IC50); over 1000 nM in the assay on NCI-H358 (K-Ras G12C) (setting [5]); 4 nM in the assay with NCI-H358 (K-Ras G12C) (read-out: H358 Cell Viability (K-Ras G12C) IC50); over 10000 nM at KRAS G12S; over 10000 nM at KRAS G12V; over 10000 nM on KRAS G13D.

In the case of `CCn1c(-c2ccccc2CN(C)C)c2c3cc(ccc31)-c1cc(O)cc(c1)C[C@H](NC(=O)[C@H](C(C)C)N(C)Cc1ccc(NC(=O)/C=C/CN(C)C)cn1)C(=O)N1CCC[C@H](N1)C(=O)OCC(C)(C)C2` [Example A213], the EC50 in assay [1] (setting [2]) is under 5000 nM. Also, the IC50 on KRAS WT was 1000 to 10000 nM and > 10000 nM; on KRAS G12D it was 1000 to 10000 nM and > 10000 nM; at NRAS G12C, 1000 to 10000 nM and > 10000 nM; on K-Ras G12C (setting [3]), 100 to 1000 nM and > 10000 nM; at K-Ras G13C (setting [4]), 100 to 1000 nM and 1000 to 10000 nM; in the assay on NCI-H358 (K-Ras G12C) (setting [5]), over 1000 nM. For the same molecule, the 50% inhibitory concentration (IC50) on KRAS G12S was 1000 to 10000 nM and > 10000 nM; on KRAS G12V, 1000 to 10000 nM and > 10000 nM; on KRAS G13D, 1000 to 10000 nM and > 10000 nM.
